Values of other authors in patent publication US20240117436A1, “METHODS OF TREATING LIPEDEMA INCLUDING AKR1C2 AS A THERAPEUTIC TARGET” (MAGI EUREGIO SCS, priority 2021, published 2024).

Test system: PGE2 and PGF2α levels
Details: literature

Molecule	Activity (prostaglandin levels)
Sennosides	increase PGE2 formation

Biological target: T1, AKR1C1 (Homo sapiens, UniProt Q04828)
T1 sequence (Q04828 1-323): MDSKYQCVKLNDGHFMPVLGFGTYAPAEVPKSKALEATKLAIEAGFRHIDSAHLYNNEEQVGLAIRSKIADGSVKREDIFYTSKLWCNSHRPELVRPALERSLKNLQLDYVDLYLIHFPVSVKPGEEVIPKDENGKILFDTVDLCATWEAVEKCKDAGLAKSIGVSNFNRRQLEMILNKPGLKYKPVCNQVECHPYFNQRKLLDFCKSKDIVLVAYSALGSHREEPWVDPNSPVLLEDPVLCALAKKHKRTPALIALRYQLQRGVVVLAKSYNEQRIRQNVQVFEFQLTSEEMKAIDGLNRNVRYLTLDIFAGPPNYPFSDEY
Details: not given

Molecule	Enzyme activity (inhibition/activation)
O=C1CN2CCOC2(c2ccccc2Cl)c2cc(Cl)ccc2N1 (centres unmarked) [Cloxazolam]	inhibition
O=C1CN=C(c2ccccn2)c2cc(Br)ccc2N1 [Bromazepam]	inhibition
CN1C(=O)CN=C(c2ccccc2F)c2cc([N+](=O)[O-])ccc21 [Flunitrazepam]	inhibition
O=C1CN=C(c2ccccc2)c2cc([N+](=O)[O-])ccc2N1 [Nitrazepam]	inhibition
CN1C(=O)CN=C(c2ccccc2)c2cc(Cl)ccc21 [Diazepam]	inhibition

Same assay, conditions: AKR1C1, known from the literature

Molecule	Enzyme activity (inhibition/activation)
O=C1CC(c2ccccc2)Oc2ccccc21 (centres unmarked) [Flavanone]	inhibition
CC(C(=O)O)c1cccc(C(=O)c2ccccc2)c1 (centres unmarked) [Ketoprofen]	inhibition
CC(C)(C)c1cc(O)ccc1O [T-Butylhydroquinone]	activation
C#C[C@]1(O)CC[C@H]2[C@@H]3CCC4=CC(=O)CC[C@@H]4[C@H]3CC[C@@]21C [Norethindrone]	inhibition
O=c1cc(-c2ccccc2)oc2cc(O)cc(O)c12 [Chrysin, 5,7-Dihydroxyflavone]	inhibition
Cc1cc(CC(=O)O)n(C)c1C(=O)c1ccc(Cl)cc1 [Zomepirac]	inhibition
O=c1c(O)c(-c2ccccc2)oc2cc(O)ccc12 [3,7-Dihydroxyflavone]	inhibition
Oc1ccc(C=Cc2cc(O)cc(O)c2)cc1 [Resveratrol]	inhibition
CC/C(=C(/CC)c1ccc(O)cc1)c1ccc(O)cc1 [Diethylstilbestrol]	inhibition
O=c1c(-c2ccc(O)cc2)coc2cc(O)ccc12 [Daidzein]	inhibition
Clc1ccc2c(c1)C(c1ccccc1)=NCc1nncn1-2 [Estazolam]	inhibition
CC(C)Cc1ccc(C(C)C(=O)O)cc1 (centres unmarked) [Ibuprofen]	inhibition
CC1(C)[C@@H](O)CC[C@]2(C)[C@H]3C(=O)C=C4[C@@H]5C[C@@](C)(C(=O)O)CC[C@]5(C)CC[C@@]4(C)[C@]3(C)CC[C@@H]12 [Glycyrrhetinic Acid]	inhibition
O=c1cc(-c2ccc(O)cc2)oc2cc(O)cc(O)c12 [Apigenin]	inhibition
O=C(O)c1cccc(Oc2ccccc2)c1 [3-Phenoxybenzoic Acid]	inhibition
COc1cccc2oc(-c3ccccc3)cc(=O)c12 [5-Methoxyflavone]	inhibition
Cc1ccc(Cl)c(Nc2ccccc2C(=O)O)c1Cl [Meclofenamic Acid]	inhibition
CC1=C(CC(=O)O)c2cc(F)ccc2/C1=C\c1ccc([S+](C)[O-])cc1 (centres unmarked) [Sulindac]	inhibition
O=C1C[C@@H](c2ccc(O)cc2)Oc2cc(O)cc(O)c21 [Naringenin]	inhibition
C[C@H]1CCCC(=O)CCC/C=C/c2cc(O)cc(O)c2C(=O)O1 [Zearalenone]	inhibition
O=C(O)c1cc(I)cc(I)c1O [3,5-Diiodosalicylic Acid]	inhibition
OO [Hydrogen peroxide]	activation
C=C(CC)C(=O)c1ccc(OCC(=O)O)c(Cl)c1Cl [Ethacrynic Acid]	activation
CN1CCN=C(c2ccccc2)c2cc(Cl)ccc21 [Medazepam]	inhibition
O=C(O)Cc1ccccc1Nc1c(Cl)cccc1Cl [Diclofenac]	inhibition
CC(=O)Oc1ccccc1C(=O)O [Acetylsalicylic Acid]	inhibition
CC(=O)Nc1ccc(O)cc1 [Paracetamol]	inhibition

Molecule	Enzyme activity (inhibition/activation)
C[C@]12CC[C@H]3C(=CCc4cc(O)ccc43)[C@@H]1CCC2=O [Equilin]	inhibition
CCc1cccc2c3c([nH]c12)C(CC)(CC(=O)O)OCC3 (centres unmarked) [Etodolac]	inhibition
CC(=O)[C@H]1CC[C@H]2[C@@H]3C=CC4=CC(=O)CC[C@@]4(C)[C@@H]3CC[C@]12C [Dydrogesterone]	inhibition
O=c1c(O)c(-c2ccc(O)c(O)c2)oc2cc(O)cc(O)c12 [Quercetin]	inhibition
O=c1oc2cc(O)ccc2c2oc3cc(O)ccc3c12 [Coumestrol]	inhibition
COc1ccc2c(c1)c(CC(=O)O)c(C)n2C(=O)c1ccc(Cl)cc1 [Indomethacin]	inhibition
CC/C(=C(\c1ccccc1)c1ccc(OCCN(C)C)cc1)c1ccccc1 [Tamoxifen]	inhibition
CC1CN2CC(=O)Nc3ccc(Cl)cc3C2(c2ccccc2)O1 (centres unmarked) [Oxazolam]	inhibition
O=c1cc(-c2ccccc2)oc2cccc(O)c12 [5-Hydroxyflavone]	inhibition
CC(=O)O[C@]1(C(C)=O)CC[C@H]2[C@@H]3C[C@H](C)C4=CC(=O)CC[C@]4(C)[C@H]3CC[C@@]21C [Medroxyprogesterone Acetate]	inhibition
COc1ccc2cc([C@H](C)C(=O)O)ccc2c1 [Naproxen]	inhibition
CC/C=C\CC1C(=O)CCC1CC(=O)OC (centres unmarked) [Methyl Jasmonate]	inhibition
O=C1CCCC1 [Cyclopentanone]	inhibition
COC1=C(OC)C(=O)c2ccccc2C1=O [2,3-Dimethoxynaphthalene-1,4-Dione, 2,3-dimethoxynaphthalene-1,4-dione]	activation
COc1ccc(-c2coc3cc(O)cc(O)c3c2=O)cc1 [Biochanin A]	inhibition
O=C1C[C@@H](c2ccc(O[C@@H]3O[C@H](CO)[C@@H](O)[C@H](O)[C@H]3O)cc2)Oc2cc(O)ccc21 [Liquiritin]	inhibition
O=c1c(O)c(-c2ccc(O)cc2)oc2cc(O)cc(O)c12 [Kaempferol]	inhibition
CC(C)C1=CC2=CC[C@@H]3[C@](C)(CCC[C@@]3(C)C(=O)O)[C@H]2CC1 [Abietic Acid]	inhibition
O=c1cc(-c2ccccc2)oc2ccccc12 [Flavone]	inhibition
O=c1c(O)c(-c2ccccc2)oc2ccccc12 [3-Hydroxyflavone]	inhibition
O=c1cc(-c2ccccc2)oc2cc(O)ccc12 [7-Hydroxyflavone]	inhibition
O=c1ccc2ccccc2o1 [Coumarin]	inhibition
O=c1cc(-c2ccc(O)c(O)c2)oc2cc(O)cc(O)c12 [Luteolin]	inhibition
C[C@H](O)[C@H]1CC[C@H]2[C@@H]3C=CC4=CC(=O)CC[C@@]4(C)[C@@H]3CC[C@]12C [20α-Hydroxydydrogesterone]	inhibition
COc1c(O)cc(O)c2c(=O)cc(-c3ccccc3)oc12 [Wagonin]	inhibition
O=c1c(-c2ccc(O)cc2)coc2cc(O)cc(O)c12 [Genistein]	inhibition

Same assay, conditions: literature statements in the text

Molecule	kind of AKR1C1 inhibition
CN1CCN=C(c2ccccc2)c2cc(Cl)ccc21 [Medazepam]	non-competitive inhibitors
O=C1C[C@@H](c2ccc(O[C@@H]3O[C@H](CO)[C@@H](O)[C@H](O)[C@H]3O)cc2)Oc2cc(O)ccc21 [Liquiritin]	selective and potent AKR1C1 inhibitor

Biological target: AKR enzymes
Details: mid-nanomolar value; read-out: affinity of cofactor in binding AKR enzymes

Molecule	Kd
NADP(H) [NADP(H) (NPD)]	100 nM
